Source: patent US20220110919A1, “METHODS OF MODULATING LEUKOCYTES ACTIVATION AND THROMBOCYTE CLEARANCE WITH INHIBITORS OF SPECIFIC NEURAMINIDASE ISOENZYMES” (The Governors of the University of Alberta, priority 2018, published 2022)
Where two headings read alike, the source gives them in different places.

Legend:
[1] = target: T1, NEU1 (Homo sapiens, UniProt Q99519); assay: Inhibition assay, 4MU-NANA cleavage, NEU1; assay type: biochemical
T1 construct: His; made in house; host or cells: HEK293 cells (cell lysate, unpurified)
Description: (§1) 4MU-NANA was then added to the mixture, making the final concentration of 4MU-NANA as 50 μM and the total volume of the reaction mixture as 20 μL. […] Assays were performed with duplicates for each point and IC50 was obtained by plotting the data with Graphpad™ Prism 5.0.

[2] = target: T2, NEU3 (Homo sapiens, UniProt Q9UQ49); assay: Inhibition assay, 4MU-NANA cleavage, NEU3; assay type: biochemical
T2 construct: MBP (N); made in house; host or cells: E. coli
T2 sequence (Q9UQ49 1-428): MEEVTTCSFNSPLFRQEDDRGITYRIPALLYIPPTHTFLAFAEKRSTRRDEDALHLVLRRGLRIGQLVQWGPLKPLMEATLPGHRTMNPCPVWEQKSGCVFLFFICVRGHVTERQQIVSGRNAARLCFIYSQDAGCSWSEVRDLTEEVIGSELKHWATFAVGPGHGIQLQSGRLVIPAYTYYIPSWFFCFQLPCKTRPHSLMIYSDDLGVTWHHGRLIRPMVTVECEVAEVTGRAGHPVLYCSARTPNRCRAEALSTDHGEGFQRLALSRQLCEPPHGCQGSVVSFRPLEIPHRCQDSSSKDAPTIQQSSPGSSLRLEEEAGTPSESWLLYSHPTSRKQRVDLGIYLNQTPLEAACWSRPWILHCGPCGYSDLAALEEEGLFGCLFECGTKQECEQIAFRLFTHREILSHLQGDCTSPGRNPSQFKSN
Description: as §1

[3] = target: T3, NEU4 (Homo sapiens, UniProt Q8WWR8); assay: Inhibition assay, 4MU-NANA cleavage, NEU4; assay type: biochemical
T3 construct: GST; made in house; host or cells: E. coli
T3 sequence (Q8WWR8 1-484): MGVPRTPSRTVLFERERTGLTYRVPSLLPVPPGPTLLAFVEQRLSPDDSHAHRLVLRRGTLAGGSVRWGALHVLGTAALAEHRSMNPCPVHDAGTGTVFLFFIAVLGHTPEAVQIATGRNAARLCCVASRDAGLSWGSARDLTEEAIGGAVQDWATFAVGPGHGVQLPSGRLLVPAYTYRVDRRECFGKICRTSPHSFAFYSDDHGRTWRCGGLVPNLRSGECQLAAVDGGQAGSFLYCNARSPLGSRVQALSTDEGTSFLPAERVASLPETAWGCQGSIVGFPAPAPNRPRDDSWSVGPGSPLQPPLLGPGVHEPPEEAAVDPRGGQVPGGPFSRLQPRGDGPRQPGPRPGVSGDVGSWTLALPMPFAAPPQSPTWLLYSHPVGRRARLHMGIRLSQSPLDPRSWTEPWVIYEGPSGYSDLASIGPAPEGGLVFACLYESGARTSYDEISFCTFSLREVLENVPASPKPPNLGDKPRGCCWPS
Description: as §1

[4] = tested on: NEU1, NEU2, NEU3, NEU4; assay: Target isoenzyme and selectivity from IC50 data of Table I; assay type: biochemical, human; details: from IC50 values of Table I
[5] = target: T4, NEU2 (Homo sapiens, UniProt Q9Y3R4); assay: Inhibition assay, 4MU-NANA cleavage, NEU2; assay type: biochemical; details: 4MU-NANA as the substrate; pH 5.5
T4 construct: MBP (N); made in house; host or cells: E. coli
Description: as §1

[6] = 4MU-NANA as the substrate, pH 4.5, read-out: IC50 NEU1
[7] = compounds of Table I, read-out: IC50 against neu3
[8] = compounds of Table I, read-out: IC50 against neu4
[9] = 4MU-NANA as the substrate, pH 4.5, read-out: IC50 NEU3
[10] = 4MU-NANA as the substrate, pH 4.5, read-out: IC50 NEU4

T4 sequence (Q9Y3R4 whole entry): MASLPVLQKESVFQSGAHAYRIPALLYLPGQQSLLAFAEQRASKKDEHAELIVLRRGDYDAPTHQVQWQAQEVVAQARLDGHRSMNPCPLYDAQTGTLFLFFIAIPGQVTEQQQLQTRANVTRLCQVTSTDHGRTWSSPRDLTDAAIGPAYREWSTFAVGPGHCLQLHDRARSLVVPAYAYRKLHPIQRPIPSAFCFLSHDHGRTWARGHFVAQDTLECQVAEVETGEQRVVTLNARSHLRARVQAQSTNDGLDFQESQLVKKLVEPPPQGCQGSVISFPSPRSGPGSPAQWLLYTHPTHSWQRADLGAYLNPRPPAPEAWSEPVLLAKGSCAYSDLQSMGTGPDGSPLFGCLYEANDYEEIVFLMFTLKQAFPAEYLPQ

Compound	IC50 [1, 6]	IC50 [3, 8]	IC50 [2, 9]	also measured
CCCCC(C)C(=O)N[C@H]1[C@H]([C@H](O)[C@H](O)CO)OC(C(=O)O)=C[C@@H]1O (mixture of isomers) [compound 72, 5-(2-Methyl)hexanamido(S/R)-2,6-anhydro-3,5-dideoxy-d-glycero-d-galacto-non-2-enonic acid]	0.55 ± 0.07 µM			
CCCCC(C)C(=O)N[C@H]1[C@H]([C@H](O)[C@H](O)CNC(C)=O)OC(C(=O)O)=C[C@@H]1O (mixture of isomers) [compound 74, 5-(2-Methyl)hexanamido(S/R)-9-acetanamido-2,6-anhydro-3,5-dideoxy-d-glycero-d-galacto-non-2-enonic acid]	0.42 ± 0.07 µM			
CC(=O)N[C@@H]1C(N=[N+]=[N-])C=C(C(=O)O)OC1CNOCc1ccccc1 (stereo in doubt) [5c]				IC50 [2, 7]: < 1 µM
COc1ccc(-c2cn(C[C@@H](O)[C@@H](O)[C@@H]3OC(C(=O)O)=C[C@H](O)[C@H]3NC(C)=O)nn2)cc1 [7e]		≤ 3 µM		
CC(=O)N[C@H]1[C@H]([C@H](O)[C@H](O)Cn2cc(-c3ccc(F)cc3)nn2)OC(C(=O)O)=C[C@@H]1O [7f]		≤ 3 µM		Selectivity [4]: 10
CC(=O)N[C@H]1[C@H]([C@H](O)[C@H](O)Cn2cc(-c3ccc(C(F)(F)F)cc3)nn2)OC(C(=O)O)=C[C@@H]1O [7g]		≤ 10 µM		
CC(=O)N[C@@H]1C(O)C=C(C(=O)O)OC1C(O)C(O)Cn1cc(-c2ccc(C(=O)O)cc2)nn1 (stereo partly shown) [7h]		≤ 3 µM		
CC(=O)N[C@@H]1C(O)C=C(C(=O)O)OC1C(O)C(O)Cn1cc(-c2ccc(-c3ccccc3)cc2)nn1 (stereo partly shown) [7i]		< 1 µM		
CCC(=O)N[C@H]1C=C(C(=O)O)O[C@@H]([C@H](O)[C@H](O)CO)[C@@H]1NC(C)=O [25a, 5-Acetamido-2,6-anhydro-4-propionamido-3,4,5-trideoxy-D-glycero-D-galacto-non-2-enonic acid]	> 500 µM		> 500 µM	IC50 [3, 10]: > 500 µM
CCCCC(=O)N[C@H]1C=C(C(=O)O)O[C@@H]([C@H](O)[C@H](O)CO)[C@@H]1NC(C)=O [25b, 5-Acetamido-2,6-anhydro-4-pentanamido-3,4,5-trideoxy-D-glycero-D-galacto-non-2-enonic acid]	> 500 µM		> 500 µM	IC50 [3, 10]: > 500 µM
CC(=O)N[C@H]1[C@H]([C@H](O)[C@H](O)CO)OC(C(=O)O)=C[C@@H]1NC(=O)C1CC1 [25c, 5-Acetamido-2,6-anhydro-4-cyclopropanecarboxamido-3,4,5-trideoxy-D-glycero-D-galacto-non-2-enonic acid]	> 500 µM		> 500 µM	IC50 [3, 10]: > 500 µM
CC(=O)N[C@H]1[C@H]([C@H](O)[C@H](O)CO)OC(C(=O)O)=C[C@@H]1NC(=O)C1CCC1 [25d, 5-Acetamido-2,6-anhydro-4-cyclobutanecarboxamido-3,4,5-trideoxy-D-glycero-D-galacto-non-2-enonic acid]	> 500 µM		> 500 µM	IC50 [3, 10]: > 500 µM
CC(=O)N[C@H]1[C@H]([C@H](O)[C@H](O)Cn2cc(-c3ccc(C(=O)O)cc3)nn2)OC(C(=O)O)=C[C@@H]1N=[N+]=[N-] [compound 13]	> 500 µM			IC50 [5]: > 500 µM; Selectivity [4]: 20
CC(=O)NC1C(N)C=C(C(=O)O)OC1C(O)C(O)Cn1cc(-c2ccc(C(=O)O)cc2)nn1 (stereo not shown) [compound 15]	> 500 µM		> 500 µM	IC50 [5]: > 500 µM; IC50 [3, 10]: > 500 µM
CC(=O)NC1C(NC(=O)NCCC(=O)O)C=C(C(=O)O)OC1C(O)C(O)Cn1cc(-c2ccc(C(=O)O)cc2)nn1 (stereo not shown) [compound 18]	> 500 µM		> 500 µM	
CC(=O)N[C@@H]1C(O)C=C(C(=O)O)OC1C(O)C(O)Cn1cc(CNC(=O)c2ccccc2)nn1 (stereo partly shown) [compound 26]		≤ 3 µM		
CC(=O)N[C@@H]1C(O)C=C(C(=O)O)OC1C(O)C(O)Cn1cc(-c2ccc(NC(=O)c3ccccc3)cc2)nn1 (stereo partly shown) [compound 27]		≤ 10 µM		
CC(=O)N[C@H]1C(C(O)C(O)Cn2cc(CO)nn2)OC(C(=O)O)=C[C@H]1O (stereo partly shown) [compound 28, C9-4HMT-DANA]	> 500 µM		80 ± 10 µM	IC50 [2, 7]: ≤ 100 µM
CCCC(=O)N[C@H]1[C@H]([C@H](O)[C@H](O)CO)OC(C(=O)O)=C[C@@H]1O [compound 30, 5-Butyramido-2,6-anhydro-3,5-dideoxy-D-glycero-D-galacto-non-2-enonic acid]	8.4 ± 0.5 µM	≤ 10 µM	15 ± 2 µM	IC50 ([1]; compounds of Table I, read-out: IC50 against neu1): ≤ 10 µM; IC50 [3, 10]: 8.4 ± 0.4 µM
[N-]=[N+]=NCC(=O)N[C@@H]1C(O)C=C(C(=O)O)OC1C(O)C(O)CO (stereo partly drawn) [compound 40, 5-(N-2-azidoacetyl)-2,3,5-trideoxy-D-glycero-D-galacto-2-nonulopyranosonic acid]		≤ 10 µM		
CC(=O)Nc1ccc(C(=O)NC[C@@H](O)[C@@H](O)[C@@H]2OC(C(=O)O)=C[C@H](O)[C@H]2NC(C)=O)cc1 [compound 58, 5-Acetamido-9-(4-acetamido)benzamido-2,6-anhydro-3,5-dideoxy-d-glycero-d-galacto-non-2-enonic acid]				IC50 [2, 7]: ≤ 10 µM
CC(=O)Nc1cccc(C(=O)NC[C@@H](O)[C@@H](O)[C@@H]2OC(C(=O)O)=C[C@H](O)[C@H]2NC(C)=O)c1 [compound 60, 5-Acetamido-9-(3-acetamido)benzamido-2,6-anhydro-3,5-dideoxy-d-glycero-d-galacto-non-2-enonic acid]				IC50 [2, 7]: ≤ 10 µM
CCCCCc1cn(C[C@@H](O)[C@@H](O)[C@@H]2OC(C(=O)O)=C[C@H](O)[C@H]2NC(C)=O)nn1 [compound 63, 5-Acetamido-9-(4-pentyl)triazolyl-2,6-anhydro-3,5-dideoxy-d-glycero-d-galacto-non-2-enonic acid]		≤ 3 µM		IC50 [2, 7]: ≤ 10 µM
CCCCCC(=O)NC[C@@H](O)[C@@H](O)[C@@H]1OC(C(=O)O)=C[C@H](O)[C@H]1NC(=O)CCCCC [compound 64, 5-Hexanamido-9-hexanamido-2,6-anhydro-3,5-dideoxy-d-glycero-d-galacto-non-2-enonic acid]			> 500 µM	IC50 [3, 10]: > 500 µM
CCCCC(=O)NC[C@@H](O)[C@@H](O)[C@@H]1OC(C(=O)O)=C[C@H](O)[C@H]1NC(=O)CC [compound 65, 5-Propionamido-9-pentanamido-2,6-anhydro-3,5-dideoxy-D-glycero-D-galacto-non-2-enonic acid]			> 500 µM	
CCCCCC(=O)N[C@H]1[C@H]([C@H](O)[C@H](O)CNC(C)=O)OC(C(=O)O)=C[C@@H]1O [compound 68, 5-Hexanamido-9-acetamido-2,6-anhydro-3,5-dideoxy-D-glycero-D-galacto-non-2-enonic acid]			> 500 µM	
CCCCCC(=O)N[C@H]1[C@H]([C@H](O)[C@H](O)CNC(=O)CC)OC(C(=O)O)=C[C@@H]1O [compound 69, 5-Hexanamido-9-propionamido-2,6-anhydro-3,5-dideoxy-d-glycero-d-galacto-non-2-enonic acid]			> 500 µM	
CCCCCC(=O)N[C@H]1[C@H]([C@H](O)[C@H](O)CNC(=O)CCC)OC(C(=O)O)=C[C@@H]1O [compound 70, 5-Hexanamido-9-butanamido-2,6-anhydro-3,5-dideoxy-D-glycero-D-galacto-non-2-enonic acid]			> 500 µM	IC50 [3, 10]: > 500 µM
